Data on one compound can be found in patent publication EP3967293A1, “COMPOSITION BASED ON VITAMIN E FOR TOPIC USE” (Sigla S.r.l., priority 2020, dated 2022).

Data set [1] can be described thus: index of diffusion (spreading value), in vivo test on the forearm. The settings on record: 4 mg on the forearm; 23°C; relative humidity 60%; ten minutes after application. On the procedure:
The index of diffusion of a compound is defined as the area (in mm^2) of a skin surface covered by said compound in a specific period of time.
The method used to determine the index of diffusion of a liquid component is an in vivo test. This method consists in applying 4 mg of the component to be analysed on the front forearm of an individual. For each component, 4 separate applications were carried out on the same individual. The test is carried out at a temperature of 23°C and at a relative humidity of 60%. Ten minutes after application of a sample on the forearm the area of diffusion was photographed and measured.

Data set [2] in a line: viscosity, Rheomat RM 180 rheometer. Conditions: at 20°C; 1500 shear rate for 5 min. The format is physicochemical. On the procedure:
The viscosity is measured using a Rheomat RM 180 rheometer. The sample analysed has a temperature between 20-25°C. The settings for the viscosity test are: bob 9, tube 1, 1500 shear rate for 5 min. (300 sec.).

`CCCCCCCCOCCCCCCCC` [Dicaprylyl ether]: in data set [1], the Index of diffusion is 1600 mm^2/10 min. For the same compound, the Viscosity in data set [2] stood at 4 mPa·s.
